Data: the NIST ThermoML archive (doi:10.1016/j.jct.2015.01.004)
Where “and” joins values, the source holds several entries; their conditions need not be identical. Equal values may be shown once. Numbers after ± are expanded uncertainties.

Assay: molar heat capacity at constant pressure; xn = mol fraction of the nth substance listed
Conditions: 100 kPa

[Si] [silicon] + [Li]
Conditions | molar heat capacity at constant pressure
12.56 K, Crystal of intercomponent compound 2, relaxation calorimeter, x2 = 0.804 | 0.0482 ± 0.0038 J/K/mol and 0.0474 ± 0.0037 J/K/mol
13.23 K, Crystal of intercomponent compound 1, relaxation calorimetry, x2 = 0.81 | 0.0671 ± 0.0053 J/K/mol
13.23 K, Crystal of intercomponent compound 2, relaxation calorimeter, x2 = 0.804 | 0.0553 ± 0.0043 J/K/mol
13.24 K, Crystal of intercomponent compound 2, relaxation calorimeter, x2 = 0.804 | 0.0547 ± 0.0043 J/K/mol
13.94 K, Crystal of intercomponent compound 1, relaxation calorimetry, x2 = 0.81 | 0.0741 ± 0.0058 J/K/mol
13.94 K, Crystal of intercomponent compound 2, relaxation calorimeter, x2 = 0.804 | 0.0639 ± 0.005 J/K/mol
13.95 K, Crystal of intercomponent compound 2, relaxation calorimeter, x2 = 0.804 | 0.0628 ± 0.0049 J/K/mol
14.69 K, Crystal of intercomponent compound 1, relaxation calorimetry, x2 = 0.81 | 0.083 ± 0.0065 J/K/mol
14.69 K, Crystal of intercomponent compound 2, relaxation calorimeter, x2 = 0.804 | 0.0753 ± 0.0059 J/K/mol and 0.0743 ± 0.0058 J/K/mol
15 K, Crystal of intercomponent compound 1, relaxation calorimetry + DSC, x2 = 0.81 | 0.0895 ± 0.007 J/K/mol
15 K, Crystal of intercomponent compound 2, relaxation calorimetry + DSC, x2 = 0.804 | 0.0803 ± 0.007 J/K/mol
15.47 K, Crystal of intercomponent compound 1, relaxation calorimetry, x2 = 0.81 | 0.094 ± 0.0074 J/K/mol
15.47 K, Crystal of intercomponent compound 2, relaxation calorimeter, x2 = 0.804 | 0.0889 ± 0.007 J/K/mol
15.48 K, Crystal of intercomponent compound 2, relaxation calorimeter, x2 = 0.804 | 0.0879 ± 0.0069 J/K/mol
16.3 K, Crystal of intercomponent compound 1, relaxation calorimetry, x2 = 0.81 | 0.1071 ± 0.0084 J/K/mol
16.3 K, Crystal of intercomponent compound 2, relaxation calorimeter, x2 = 0.804 | 0.1049 ± 0.0082 J/K/mol
16.31 K, Crystal of intercomponent compound 2, relaxation calorimeter, x2 = 0.804 | 0.1039 ± 0.0082 J/K/mol
17.17 K, Crystal of intercomponent compound 1, relaxation calorimetry, x2 = 0.81 | 0.1224 ± 0.0096 J/K/mol
17.18 K, Crystal of intercomponent compound 2, relaxation calorimeter, x2 = 0.804 | 0.1233 ± 0.0097 J/K/mol and 0.1231 ± 0.0097 J/K/mol
18.09 K, Crystal of intercomponent compound 1, relaxation calorimetry, x2 = 0.81 | 0.1403 ± 0.011 J/K/mol
18.09 K, Crystal of intercomponent compound 2, relaxation calorimeter, x2 = 0.804 | 0.1454 ± 0.011 J/K/mol
18.1 K, Crystal of intercomponent compound 2, relaxation calorimeter, x2 = 0.804 | 0.1461 ± 0.011 J/K/mol
19.06 K, Crystal of intercomponent compound 1, relaxation calorimetry, x2 = 0.81 | 0.1618 ± 0.013 J/K/mol
19.07 K, Crystal of intercomponent compound 2, relaxation calorimeter, x2 = 0.804 | 0.1725 ± 0.013 J/K/mol and 0.1731 ± 0.014 J/K/mol
20 K, Crystal of intercomponent compound 1, relaxation calorimetry + DSC, x2 = 0.81 | 0.184 ± 0.014 J/K/mol
20 K, Crystal of intercomponent compound 2, relaxation calorimetry + DSC, x2 = 0.804 | 0.201 ± 0.018 J/K/mol
20.09 K, Crystal of intercomponent compound 1, relaxation calorimetry, x2 = 0.81 | 0.187 ± 0.008 J/K/mol
20.09 K, Crystal of intercomponent compound 2, relaxation calorimeter, x2 = 0.804 | 0.205 ± 0.008 J/K/mol
20.1 K, Crystal of intercomponent compound 2, relaxation calorimeter, x2 = 0.804 | 0.203 ± 0.008 J/K/mol
21.16 K, Crystal of intercomponent compound 1, relaxation calorimetry, x2 = 0.81 | 0.219 ± 0.009 J/K/mol
21.16 K, Crystal of intercomponent compound 2, relaxation calorimeter, x2 = 0.804 | 0.24 ± 0.01 J/K/mol
21.17 K, Crystal of intercomponent compound 2, relaxation calorimeter, x2 = 0.804 | 0.242 ± 0.01 J/K/mol
22.28 K, Crystal of intercomponent compound 1, relaxation calorimetry, x2 = 0.81 | 0.255 ± 0.01 J/K/mol
22.3 K, Crystal of intercomponent compound 2, relaxation calorimeter, x2 = 0.804 | 0.283 ± 0.012 J/K/mol and 0.286 ± 0.012 J/K/mol
23.49 K, Crystal of intercomponent compound 2, relaxation calorimeter, x2 = 0.804 | 0.333 ± 0.014 J/K/mol and 0.337 ± 0.014 J/K/mol
23.51 K, Crystal of intercomponent compound 1, relaxation calorimetry, x2 = 0.81 | 0.297 ± 0.012 J/K/mol
24.74 K, Crystal of intercomponent compound 1, relaxation calorimetry, x2 = 0.81 | 0.331 ± 0.014 J/K/mol
24.75 K, Crystal of intercomponent compound 2, relaxation calorimeter, x2 = 0.804 | 0.391 ± 0.016 J/K/mol and 0.396 ± 0.016 J/K/mol
25 K, Crystal of intercomponent compound 1, relaxation calorimetry + DSC, x2 = 0.81 | 0.347 ± 0.014 J/K/mol
25 K, Crystal of intercomponent compound 2, relaxation calorimetry + DSC, x2 = 0.804 | 0.403 ± 0.016 J/K/mol
26.07 K, Crystal of intercomponent compound 2, relaxation calorimeter, x2 = 0.804 | 0.458 ± 0.019 J/K/mol and 0.454 ± 0.019 J/K/mol
26.08 K, Crystal of intercomponent compound 1, relaxation calorimetry, x2 = 0.81 | 0.39 ± 0.016 J/K/mol
27.47 K, Crystal of intercomponent compound 2, relaxation calorimeter, x2 = 0.804 | 0.534 ± 0.022 J/K/mol
27.48 K, Crystal of intercomponent compound 1, relaxation calorimetry, x2 = 0.81 | 0.457 ± 0.019 J/K/mol
27.48 K, Crystal of intercomponent compound 2, relaxation calorimeter, x2 = 0.804 | 0.531 ± 0.022 J/K/mol
28.94 K, Crystal of intercomponent compound 2, relaxation calorimeter, x2 = 0.804 | 0.623 ± 0.025 J/K/mol
28.95 K, Crystal of intercomponent compound 1, relaxation calorimetry, x2 = 0.81 | 0.534 ± 0.022 J/K/mol
28.95 K, Crystal of intercomponent compound 2, relaxation calorimeter, x2 = 0.804 | 0.619 ± 0.025 J/K/mol
30 K, Crystal of intercomponent compound 1, relaxation calorimetry + DSC, x2 = 0.81 | 0.596 ± 0.024 J/K/mol
30 K, Crystal of intercomponent compound 2, relaxation calorimetry + DSC, x2 = 0.804 | 0.689 ± 0.028 J/K/mol
30.48 K, Crystal of intercomponent compound 2, relaxation calorimeter, x2 = 0.804 | 0.723 ± 0.03 J/K/mol
30.49 K, Crystal of intercomponent compound 1, relaxation calorimetry, x2 = 0.81 | 0.625 ± 0.026 J/K/mol
30.5 K, Crystal of intercomponent compound 2, relaxation calorimeter, x2 = 0.804 | 0.718 ± 0.029 J/K/mol
32.11 K, Crystal of intercomponent compound 2, relaxation calorimeter, x2 = 0.804 | 0.835 ± 0.034 J/K/mol
32.12 K, Crystal of intercomponent compound 1, relaxation calorimetry, x2 = 0.81 | 0.728 ± 0.03 J/K/mol
32.12 K, Crystal of intercomponent compound 2, relaxation calorimeter, x2 = 0.804 | 0.832 ± 0.034 J/K/mol
33.83 K, Crystal of intercomponent compound 2, relaxation calorimeter, x2 = 0.804 | 0.964 ± 0.039 J/K/mol
33.84 K, Crystal of intercomponent compound 1, relaxation calorimetry, x2 = 0.81 | 0.848 ± 0.035 J/K/mol
33.84 K, Crystal of intercomponent compound 2, relaxation calorimeter, x2 = 0.804 | 0.961 ± 0.039 J/K/mol
35 K, Crystal of intercomponent compound 1, relaxation calorimetry + DSC, x2 = 0.81 | 0.934 ± 0.038 J/K/mol
35 K, Crystal of intercomponent compound 2, relaxation calorimetry + DSC, x2 = 0.804 | 1.056 ± 0.043 J/K/mol
35.64 K, Crystal of intercomponent compound 2, relaxation calorimeter, x2 = 0.804 | 1.113 ± 0.045 J/K/mol
35.65 K, Crystal of intercomponent compound 2, relaxation calorimeter, x2 = 0.804 | 1.109 ± 0.045 J/K/mol
35.66 K, Crystal of intercomponent compound 1, relaxation calorimetry, x2 = 0.81 | 0.987 ± 0.04 J/K/mol
37.54 K, Crystal of intercomponent compound 2, relaxation calorimeter, x2 = 0.804 | 1.278 ± 0.052 J/K/mol
37.56 K, Crystal of intercomponent compound 1, relaxation calorimetry, x2 = 0.81 | 1.143 ± 0.047 J/K/mol
37.56 K, Crystal of intercomponent compound 2, relaxation calorimeter, x2 = 0.804 | 1.272 ± 0.052 J/K/mol
39.55 K, Crystal of intercomponent compound 2, relaxation calorimeter, x2 = 0.804 | 1.458 ± 0.059 J/K/mol
39.56 K, Crystal of intercomponent compound 1, relaxation calorimetry, x2 = 0.81 | 1.315 ± 0.054 J/K/mol
39.57 K, Crystal of intercomponent compound 2, relaxation calorimeter, x2 = 0.804 | 1.455 ± 0.059 J/K/mol
40 K, Crystal of intercomponent compound 1, relaxation calorimetry + DSC, x2 = 0.81 | 1.35 ± 0.06 J/K/mol
40 K, Crystal of intercomponent compound 2, relaxation calorimetry + DSC, x2 = 0.804 | 1.5 ± 0.06 J/K/mol
41.66 K, Crystal of intercomponent compound 2, relaxation calorimeter, x2 = 0.804 | 1.664 ± 0.068 J/K/mol
41.67 K, Crystal of intercomponent compound 1, relaxation calorimetry, x2 = 0.81 | 1.513 ± 0.062 J/K/mol
41.68 K, Crystal of intercomponent compound 2, relaxation calorimeter, x2 = 0.804 | 1.659 ± 0.068 J/K/mol
43.88 K, Crystal of intercomponent compound 1, relaxation calorimetry, x2 = 0.81 | 1.731 ± 0.07 J/K/mol
43.89 K, Crystal of intercomponent compound 2, relaxation calorimeter, x2 = 0.804 | 1.888 ± 0.077 J/K/mol
43.9 K, Crystal of intercomponent compound 2, relaxation calorimeter, x2 = 0.804 | 1.888 ± 0.077 J/K/mol
45 K, Crystal of intercomponent compound 1, relaxation calorimetry + DSC, x2 = 0.81 | 1.85 ± 0.08 J/K/mol
45 K, Crystal of intercomponent compound 2, relaxation calorimetry + DSC, x2 = 0.804 | 2.01 ± 0.08 J/K/mol
46.22 K, Crystal of intercomponent compound 1, relaxation calorimetry, x2 = 0.81 | 1.98 ± 0.081 J/K/mol
